Source: paper PMC9014415, “Repositioning of a Diaminothiazole Series Confirmed to Target the Cyclin-Dependent Kinase CRK12 for Use in the Treatment of African Animal Trypanosomiasis” (Journal of Medicinal Chemistry, 2022)
“And” between values parts separate entries of the source, which are not always exact repeats. Equal values may be shown once. Read-outs that look alike come from different tables or passages of the source.

How the values were obtained:
Protein plasma binding = format: in vitro ADME; settings: mouse
Protocol: 2.4 Protein plasma binding
This was determined as previously described.6
2.5 PK and maximum tolerated dose - mouse
PK studies in female NMRI mice (Figure S1): Test compounds 1, 2 and 10 were dosed SC at 10 mg free base/kg (dose volume 10 mL/kg; dose vehicle: 5% (v/v) DMSO, 40% polyethylene glycol 400 (PEG400) and 55% deionized water) to female NMRI mice (n = 3). Blood samples (10 μL) were taken from each mouse at 0.08, 0.25, 0.5, 1, 2, 4, 6, 8 h post dose (24 h post dose for compounds 2 and 10 only) and mixed with two volumes of deionized water (20 μL). Alternatively, compound 2 was delivered for 48 h via SC implanted ALZET osmotic pumps (10, 25 and 50 mg free base/mL, vehicle: 50% DMSO and 50% deionized water) to the female NMRI mouse (n = 3). Blood samples (10 μL) from each mouse were taken at 1, 3, 6, 24, 30 and 48 h post-dose and mixed with two volumes of deionized water (20 μL).
Compound 1 as free base in 5% DMSO; 40% PEG400; 55% MilliQ water was dosed daily subcutaneously with doses of 50 mg/kg, 100 mg/kg and 300 mg/kg for 3 days.
2.6 PK and formulation studies - male Sprague rats […]

[1] = Pharmacokinetic studies in male Friesian-Holstein cattle, IV and IM (Ridgeway); format: in vivo; settings: for Vd: read-out: Vdss
Protocol: 2.7 Pharmacokinetic studies in cattle (see Table 2). Studies conducted at Ridgeway Compound 1 was dosed IM at 5 mg free base/kg (dose volume 2mL/10 kg; dose vehicle 10% N-Methyl-2-Pyrrolidinone (NMP), 40% 2-pyrrolidinone, 30% PEG400, 20% deionized water) or IV at 2.5 mg free base/kg (dose volume 0.4 mL/10 kg; 2.5% NMP, 30% PEG400, 37.5% propylene glycol, 30% water by volume) to male ruminating Holstein-Friesian cross animals (n = 4). Blood samples were taken from each animal using 18-G needles into EDTA (K2) vacutainers before dosing and at […]
a cool box containing iced water and were processed within 2 h of collection (Figure S2, Table S1).
Compound 2 was dosed IM at 10 mg free base/kg (dose volume 2 mL/10 kg; dose vehicle 40% 0.3 M Acetate Buffer, 20% Kolliphor EL, 20% glycerol formal, 20% 2-pyrrolidone) or IV at 2 mg free base/kg (dose volume 0.4 mL/10 kg; 40% 0.3 M Acetate Buffer, 20% Kolliphor EL, 20% glycerol formal, 20% 2-pyrrolidone) to male ruminating Holstein-Friesian cross animals (n = 3). Blood samples were taken from each animal using 18-G needles into EDTA (K2) vacutainers before dosing […]
into a cool box containing iced water and were processed within 2 h of collection. […]

T. b. brucei = experiment: In vitro drug sensitivity assay, bloodstream-form T. b. brucei; format: cell-based; settings: Trypanosoma brucei, n = 12
Protocol: 1.1 In vitro drug sensitivity assays - Trypanosoma brucei brucei
Drug sensitivity assays were carried out with bloodstream-form (BSF) T. b. brucei ‘single marker’ S427 cells grown at 37°C with 5% CO2 in HMI-9T medium,1 as previously described.2 1.2 In vitro drug sensitivity assays - Trypanosoma congolense
EC50 values for test compounds against T. congolense (IL3000 strain) were conducted as previously described3 with minor modifications.4 Briefly, trypanosome cell densities were determined using a CASY cell counter (Schärfe) and diluted to a seeding density of 2 x 105 trypanosomes/mL. […] Absorbance was read using a SpectraMax (Gemini XS) fluorescence reader at an excitation wavelength of 536 nm and an emission wavelength of 588 nm. EC50 values were determined using SOFTmax Pro 5.2 analysis software. […]
Since T. vivax cannot be cultured axenically, BSF trypanosomes were harvested from an infected mouse with high parasitemia via cardiac puncture and used directly in ex vivo assays. EC50 values were determined against T, vivax (STIB 719/ ILRAD 560) as previously described3, with minor modifications. Briefly, cell densities were determined using a Neubauer chamber and then diluted to a seeding density of 4 x 105 trypanosomes / mL. […] Absorbance was read using a SpectraMax (Gemini XS) fluorescence reader at an excitation wavelength of 536 nm and an emission wavelength of 588 nm. […]

[2] = cattle, IM 5 mg/kg, individual animals 2754, 7462, 1753, 6752
[3] = cattle, IM 5 mg/kg, n = 4, mean
[4] = cattle, IV 2.5 mg/kg, individual animals 2754, 7462, 1753, 6752, 2.5 mg/kg
[5] = male, Holstein-Friesian cross, bovine, blood, im, 5 mg/kg, cattle, IM 5 mg/kg, individual animals 2754, 7462, 1753, 6752
[6] = cattle, IM 10 mg/kg, individual animals 1644, 3646, 7643
[7] = cattle, IM 10 mg/kg, n = 3, mean
[8] = cattle, IV 2 mg/kg, individual animals 1644, 3646, 7643, 2 mg/kg
[9] = cattle, IV 2 mg/kg, n = 3, mean, 2 mg/kg
[10] = male, Holstein-Friesian cross, bovine, blood, im, 10 mg/kg, cattle, IM 10 mg/kg, individual animals 1644, 3646, 7643
[11] = male, Holstein-Friesian cross, bovine, blood, im, 10 mg/kg, cattle, IM 10 mg/kg, n = 3, mean
[12] = male, Holstein-Friesian cross, bovine, blood, iv, 2 mg/kg, cattle, IV 2 mg/kg, individual animals 1644, 3646, 7643
[13] = male, Holstein-Friesian cross, bovine, blood, iv, 2 mg/kg, cattle, IV 2 mg/kg, n = 3, mean

CC(C)CS(=O)(=O)N[C@H]1CC[C@H](Nc2nc(N)c(C(=O)c3c(F)cccc3F)s2)CC1 [Compound 1, N-((trans)-4-((4-Amino-5-(2,6-difluorobenzoyl)thiazol-2-yl)amino)cyclohexyl)-2-methylpropane-1-sulfonamide]
fraction unbound (Protein plasma binding): 0.16
AUC 0-∞ [1, 2]: 26,000 ng-min/mL and 15,000 ng-min/mL and 22,000 ng-min/mL
Cmax [1, 2]: 70 ng/mL and 128 ng/mL and 118 ng/mL and 216 ng/mL
F [1, 2]: 11% and 7% (2×)
Tmax [1, 2]: 0.25 h
Cmax [1, 3]: 130 ± 60 ng/mL
F [1, 3]: 8.8 ± 2.1%
AUC 0-∞ [1, 4]: 120,000 ng-min/mL (2×) and 160,000 ng-min/mL
Clb [1, 4]: 24 mL/min/kg and 20 mL/min/kg and 21 mL/min/kg and 15 mL/min/kg
Vdss [1, 4]: 3.5 L/kg and 1.8 L/kg and 2.5 L/kg and 1.7 L/kg
half-life [1, 4]: 1.7 h and 2.4 h
Clb ([1]; cattle, IV 2.5 mg/kg, n = 4, mean ± SD): 20 ± 4 mL/min/kg
AUC(0-inf) [1, 5]: 350 ng·h/mL
bioavailability [1, 5]: 10%
Tmax ([1]; male, Holstein-Friesian cross, bovine, blood, im, 5 mg/kg, cattle, IM 5 mg/kg, individual animals 2754, 7462, 1753, 6752, read-out: Tmax): 0.5 h
bioavailability ([1]; male, Holstein-Friesian cross, bovine, blood, im, 5 mg/kg, cattle, IM 5 mg/kg, n = 4, mean): 9%
Cmax ([1]; male, Holstein-Friesian cross, bovine, blood, im, 5 mg/kg, cattle, IM 5 mg/kg, n = 4, mean, read-out: Cmax): 133 ng/mL
AUC(0-inf) ([1]; male, Holstein-Friesian cross, bovine, blood, iv, 2.5 mg/kg, cattle, IV 2.5 mg/kg, individual animals 2754, 7462, 1753, 6752): 1670 ng·h/mL
half-life ([1]; male, Holstein-Friesian cross, bovine, blood, iv, 2.5 mg/kg, cattle, IV 2.5 mg/kg, individual animals 2754, 7462, 1753, 6752, read-out: Half-life (converted)): 1.2 h
AUC(0-inf) ([1]; male, Holstein-Friesian cross, bovine, blood, iv, 2.5 mg/kg, cattle, IV 2.5 mg/kg, n = 4, mean ± SD): 2170 ng·h/mL
half-life ([1]; male, Holstein-Friesian cross, bovine, blood, iv, 2.5 mg/kg, cattle, IV 2.5 mg/kg, n = 4, mean ± SD, read-out: half-life (converted)): ~1.8 h
AUC(0-t) ([1]; male, Holstein-Friesian cross, bovine, blood, cattle, IM 5 mg/kg, mean, read-out: AUC0-8 (converted)): 349 ng·h/mL
AUC(0-inf) ([1]; male, Holstein-Friesian cross, bovine, whole blood, im, 5 mg/kg, cattle, IM 5 mg/kg, n = 4, mean ± SD): 350 ng·h/mL
Tmax ([1]; male, Holstein-Friesian cross, bovine, whole blood, im, 5 mg/kg, cattle, IM 5 mg/kg, n = 4, mean ± SD, read-out: Tmax): 0.44 ± 0.13 h
Vd ([1]; male, Holstein-Friesian cross, bovine, whole blood, iv, 2.5 mg/kg, cattle, IV 2.5 mg/kg, n = 4, mean ± SD): 2.4 ± 0.8 L/kg
EC50 (T. b. brucei): 1.3 nM

CC(C)CS(=O)(=O)N[C@H]1CC[C@H](Nc2nc(N)c(C(=O)c3c(F)cc(CN(C)C)cc3F)s2)CC1 [Compound 2, N-(trans)-[4-[[4-Amino-5-[4-(dimethylaminomethyl)-2,6-difluoro-benzoyl]thiazol-2-yl]amino]cyclohexyl]-2-methyl-propane-1-sulfonamide]
Cav ([1]; Friesian cattle, single IM 10 mg free base/kg): 253 ng/mL
AUC 0-∞ [1, 6]: 510,000 ng-min/mL and 460,000 ng-min/mL
Cmax [1, 6]: 950 ng/mL and 1,700 ng/mL and 2,600 ng/mL
F [1, 6]: 75% and 66%
AUC 0-∞ [1, 7]: 500,000 ± 30,000 ng-min/mL
Cmax [1, 7]: 1700 ± 800 ng/mL
F [1, 7]: 73 ± 6%
Tmax [1, 7]: 1.3 ± 0.6 h
Injection site tolerability ([1]; cattle, IM, pharmacokinetic study): irritancy and necrosis
AUC 0-∞ [1, 8]: 94,000 ng-min/mL and 180,000 ng-min/mL
Clb [1, 8]: 14 mL/min/kg and 21 mL/min/kg and 11 mL/min/kg
half-life [1, 8]: 3 h
AUC 0-∞ [1, 9]: 140,000 ± 40,000 ng-min/mL
Clb [1, 9]: 15 mL/min/kg and 15 ± 5 mL/min/kg
Vdss [1, 9]: 2.3 ± 0.6 L/kg
AUC ([1]; male, Holstein-Friesian cross, bovine, blood, 10 mg/kg, Friesian cattle, single IM 10 mg free base/kg): 7330 ng·h/mL
AUC(0-inf) [1, 10]: 8830 ng·h/mL
bioavailability [1, 10]: 78%
Tmax ([1]; male, Holstein-Friesian cross, bovine, blood, im, 10 mg/kg, cattle, IM 10 mg/kg, individual animals 1644, 3646, 7643, read-out: Tmax): 2 h
AUC(0-inf) [1, 11]: 8170 ng·h/mL
bioavailability [1, 11]: 74%
Cmax ([1]; male, Holstein-Friesian cross, bovine, blood, im, 10 mg/kg, cattle, IM 10 mg/kg, n = 3, mean, read-out: Cmax): 1720 ng/mL
Tmax ([1]; male, Holstein-Friesian cross, bovine, blood, im, 10 mg/kg, cattle, IM 10 mg/kg, n = 3, mean, read-out: Tmax): 1 h
concentration at 24 h ([1]; male, Holstein-Friesian cross, bovine, blood, intramuscular, Friesian cattle, single IM 10 mg free base/kg, read-out: Cmin (24 h)): 20 ng/mL
AUC(0-inf) [1, 12]: 2330 ng·h/mL
half-life ([1]; male, Holstein-Friesian cross, bovine, blood, iv, 2 mg/kg, cattle, IV 2 mg/kg, individual animals 1644, 3646, 7643, read-out: Half-life (converted)): 6 h
Vd [1, 12]: 2 L/kg
AUC(0-inf) [1, 13]: 2170 ng·h/mL
Vd [1, 13]: 3 L/kg
half-life ([1]; male, Holstein-Friesian cross, bovine, whole blood, iv, 2 mg/kg, cattle, IV 2 mg/kg, n = 3, mean, read-out: half-life (converted)): 4 ± 2 h
